{
  "source": "paper PMC7083880",
  "about": "(Nature Communications, 2020)",
  "key": {"[1]": {"tested_on": "p53-null 4T1 cell tumors in nude mice", "test": "In vivo tumor growth, 4T1 cells in nude mice", "set-up": "species or system mouse", "experimental": "(§1) For each experimental condition, 7 mice were used. b Fourteen nude mice were injected with Calu-6 cells to promote tumor development. […] The arrow indicates the starting time of the exposure to DMSO or DAP. For each experimental condition, 7 mice were used. […] GAPDH was used as loading control. A molecular weight marker is indicated to the left of the gel. The results presented in this figure are representative of two independent experiments. p-values (p) were calculated using Student’s t-test. Source data are provided as a Source Data file.\n(§2) Next, the capacity of DAP to correct UGA nonsense mutations in vivo was assessed in a mouse model. Four-week-old immunodeficient nude mice were injected with an identical number of Calu-6 cells carrying a UGA nonsense mutation in the TP53 gene, of HCC-GR6 cells having a wild-type TP53 gene or of p53-null 4T1 cells. […] The slower growth of Calu-6-cell-derived tumors in DAP-treated mice is thus likely due to rescue of p53 protein synthesis in these tumors, as expected on the basis of our cell culture experiments and as observed after western-blotting applied to protein extracts of tumors from DAP-treated mice (Supplementary Fig. 8B). Because of the small size of the Calu-6 tumors in DAP-treated mice and thus the high probability of collecting mouse cells upon tumor excision, quantitation of p53 was done in another experiment.\n(§3) To initiate tumor growth, 6-week-old nude mice received subcutaneously 10 million cells suspended in PBS. […] Tumors were measured three times weekly for 5 weeks to determine the tumor volume by the following formula: l (mm) × L (mm) × L (mm). The tumors were then collected and a fraction was used for western blot analysis after protein extraction. All in vivo experiments complied with all relevant ethical regulations for animal testing and research and were authorized by the Ethic Committee 075 under the number 12971-2018010815336092."}, "[2]": {"test": "DAP stability assay in human liver S9", "format": "in vitro ADME", "details": "pooled human liver S9 fraction, 37 °C, read-out: Recovery of the molecule after incubation", "description": "The S9 mix was composed of 5 mM glucose-6-phosphate (Ref. G7879, Batch no. SLBP253V, Sigma, France), 33.5 mM KCl (Ref. P3911, Batch no. SLBQ3328V, Sigma, France), 8 mM MgCl2 (Ref. M8266, Batch no. SLBK9099V, Sigma, France), 4 mM β-NADP (Ref. N5755, Batch no. SLBJ7935V, Sigma, France), and 100 mM NaH2PO4 (Ref. S3139, Batch no. BCBT3558, Sigma, France) in ultrapure water (Ref. BE51200, Batch no. BCBT3558, Lonza, France). Seventy-five microliters of human liver S9 fraction (Pooled Human Liver S9, 20 mg/ml, Ref. 452961, BD, France) was then added to 1380 µl of this S9 mix. The solution was warmed for 15 min at 37 °C in a thermostated water bath. The final protein concentration was 1 mg/ml after addition of working solutions.\nThe samples were then centrifuged and directly analyzed by LC–MS. The extraction efficiency was estimated at 97.2%. After extraction, the collected supernatants were directly injected into the HPLC system for analysis. Analysis was performed by MS to allow detection of potential metabolite(s)."}, "[3]": {"tested_on": "Calu-6 cell tumors (TP53 UGA nonsense mutation) in nude mice", "format": "in vivo", "set-up": "tumor size, Average: unit not given here", "experimental": "as §1, §2, §3"}},
  "note": "Where “and” joins values, the source holds several entries; their conditions need not be identical. Equal entries are not always repeated. Where two headings read alike, the source gives them in different places.",
  "data": [
    {"smiles": "Nc1nc(N)c2[nH]cnc2n1", "note": "[DAP, 2,6-diaminopurine]", "values": [
      {"measurement": "tumor size, Average", "setting": "[1]; 4T1, day 4, average of 7 mice", "value": 0.036},
      {"measurement": "tumor size, individual mice", "setting": "[1]; 4T1, day 4, mice 1-7", "value": "0.048 and 0.027"},
      {"measurement": "tumor size, Average", "setting": "[1]; 4T1, day 6, average of 7 mice", "value": 0.08071},
      {"measurement": "tumor size, individual mice", "setting": "[1]; 4T1, day 6, mice 1-7", "value": "0.125 and 0.064 and 0.1 and 0.048"},
      {"measurement": "tumor size, Average", "setting": "[1]; 4T1, day 8, average of 7 mice", "value": 0.09843},
      {"measurement": "tumor size, individual mice", "setting": "[1]; 4T1, day 8, mice 1-7", "value": "0.125 and 0.1 and 0.064"},
      {"measurement": "tumor size, Average", "setting": "[1]; 4T1, day 11, average of 7 mice", "value": 0.1407},
      {"measurement": "tumor size, individual mice", "setting": "[1]; 4T1, day 11, mice 1-7", "value": "0.18 and 0.125"},
      {"measurement": "tumor size, Average", "setting": "[1]; 4T1, day 13, average of 7 mice", "value": 0.227},
      {"measurement": "tumor size, individual mice", "setting": "[1]; 4T1, day 13, mice 1-7", "value": "0.294 and 0.18 and 0.245 and 0.216"},
      {"measurement": "tumor size, Average", "setting": "[1]; 4T1, day 15, average of 7 mice", "value": 0.401},
      {"measurement": "tumor size, individual mice", "setting": "[1]; 4T1, day 15, mice 1-7", "value": "0.448 and 0.567 and 0.294 and 0.343"},
      {"measurement": "tumor size, Average", "setting": "[1]; 4T1, day 18, average of 7 mice", "value": 0.6964},
      {"measurement": "tumor size, individual mice", "setting": "[1]; 4T1, day 18, mice 1-7", "value": "0.648 and 0.8 and 0.567 and 0.9 and 0.512"},
      {"measurement": "tumor size, Average", "setting": "[1]; 4T1, day 20, average of 7 mice", "value": 0.9223},
      {"measurement": "tumor size, individual mice", "setting": "[1]; 4T1, day 20, mice 1-7", "value": "0.9 and 0.968 and 0.8 and 1.44 and 0.648"},
      {"measurement": "tumor size, Average", "setting": "[1]; 4T1, day 22, average of 7 mice", "value": 1.032},
      {"measurement": "tumor size, individual mice", "setting": "[1]; 4T1, day 22, mice 1-7", "value": "0.9 and 0.968 and 0.8 and 1.859"},
      {"measurement": "tumor size, Average", "setting": "[1]; 4T1, day 25, average of 7 mice", "value": 1.344},
      {"measurement": "tumor size, individual mice", "setting": "[1]; 4T1, day 25, mice 1-7", "value": "1.089 and 1.44 and 1 and 2.7"},
      {"measurement": "tumor size, Average", "setting": "[1]; 4T1, day 27, average of 7 mice", "value": 1.752},
      {"measurement": "tumor size, individual mice", "setting": "[1]; 4T1, day 27, mice 1-7", "value": "1.69 and 1.859 and 1.44 and 1.584 and 1.21 and 3.15 and 1.331"},
      {"measurement": "tumor size, Average", "setting": "[1]; 4T1, day 29, average of 7 mice", "value": 2.057},
      {"measurement": "tumor size, individual mice", "setting": "[1]; 4T1, day 29, mice 1-7", "value": "1.69 and 2.028 and 1.859 and 1.584 and 4.046 and 1.331"},
      {"measurement": "tumor size, Average", "setting": "[1]; 4T1, day 32, average of 7 mice", "value": 2.639},
      {"measurement": "tumor size, individual mice", "setting": "[1]; 4T1, day 32, mice 1-7", "value": "2.156 and 2.7 and 2.028 and 5.184 and 2.352"},
      {"measurement": "tumor size, Average", "setting": "[1]; 4T1, day 34, average of 7 mice", "value": 3.227},
      {"measurement": "tumor size, individual mice", "setting": "[1]; 4T1, day 34, mice 1-7", "value": "2.925 and 2.548 and 2.744 and 5.776"},
      {"measurement": "tumor size, Average", "setting": "[1]; 4T1, day 36, average of 7 mice", "value": 3.574},
      {"measurement": "tumor size, individual mice", "setting": "[1]; 4T1, day 36, mice 1-7", "value": "2.925 and 3.15 and 7.2 and 2.744"},
      {"measurement": "Tumor growth vs DMSO, in words", "setting": "[1]; 4T1, nude mice, force-fed daily, 5 weeks", "value": "no significant difference in tumor growth"},
      {"measurement": "recovery at 4 h, 300 µM", "setting": "[2]", "value": "> 80", "unit": "%"},
      {"measurement": "tumor size, Average", "setting": "[3]; Calu-6, day 4, average of 7 mice", "value": 0.07457},
      {"measurement": "tumor size, Average", "setting": "[3]; Calu-6, day 6, average of 7 mice", "value": 0.06657},
      {"measurement": "tumor size, Average", "setting": "[3]; Calu-6, day 9, average of 7 mice", "value": 0.067},
      {"measurement": "tumor size, Average", "setting": "[3]; Calu-6, day 11, average of 7 mice", "value": 0.05029},
      {"measurement": "tumor size, Average", "setting": "[3]; Calu-6, day 13, average of 7 mice", "value": 0.039},
      {"measurement": "tumor size, Average", "setting": "[3]; Calu-6, day 16, average of 7 mice", "value": 0.037},
      {"measurement": "tumor size, Average", "setting": "[3]; Calu-6, day 18, average of 7 mice", "value": 0.03471},
      {"measurement": "tumor size, Average", "setting": "[3]; Calu-6, day 20, average of 7 mice", "value": 0.06171},
      {"measurement": "tumor size, Average", "setting": "[3]; Calu-6, day 23, average of 7 mice", "value": 0.07814},
      {"measurement": "tumor size, Average", "setting": "[3]; Calu-6, day 25, average of 7 mice", "value": 0.06286},
      {"measurement": "tumor size, Average", "setting": "[3]; Calu-6, day 27, average of 7 mice", "value": 0.07829},
      {"measurement": "tumor size, Average", "setting": "[3]; Calu-6, day 30, average of 7 mice", "value": 0.09486},
      {"measurement": "tumor size, Average", "setting": "[3]; Calu-6, day 32, average of 7 mice", "value": 0.1364},
      {"measurement": "tumor size, Average", "setting": "[3]; Calu-6, day 34, average of 7 mice", "value": 0.1461},
      {"measurement": "tumor size, Average", "setting": "[3]; Calu-6, day 37, average of 7 mice", "value": 0.1584},
      {"measurement": "tumor size, Average", "setting": "[3]; Calu-6, day 39, average of 7 mice", "value": 0.2454},
      {"measurement": "tumor size, Average", "setting": "[3]; Calu-6, day 41, average of 7 mice", "value": 0.2229},
      {"measurement": "Tumor growth vs DMSO, in words", "setting": "[3]; Calu-6, nude mice, force-fed daily, 5 weeks", "value": "strongly impaired tumor growth"},
      {"measurement": "Toxicity in a mouse model", "setting": "[3]; mouse, in vivo, po", "value": "no detectable toxicity"}
    ]}
  ]
}
